Measured values as given in patent US20250177381A1 (SHANGHAI YONSUN BIOTECHNOLOGY CO., LTD., priority 2022, published 2025).
In brackets after ≈: the same amount, converted by molar mass. Where a name gives a salt, the structure may show the parent alone. Read-outs that look alike come from different tables or passages of the source. Blank lines part the entries; values can stand above or below the molecule they belong to.

Assays:
Assay type in all cases: physicochemical
[1] = Solubility in media with different pH values; conditions: shaken 24 h; for Solubility pH 3 / Solubility pH 5 / Solubility pH 4 / Solubility pH 6: acetate buffer; for Solubility pH 3 / Solubility pH 5 / Solubility Water / Solubility pH 4 / Solubility pH 6 / Solubility pH 7 / Solubility pH 7.4 / Solubility pH 8 / Solubility pH 9: 37° C.; for solubility at 24 h / Solubility pH 7 / Solubility pH 7.4 / Solubility pH 8 / Solubility pH 9: phosphate buffer; for solubility at 24 h: 37 °C, thermodynamic from solid
Protocol: The mixtures were shaken at 37° C. for 24 h and filtered through a 0.45 μm aqueous-phase filter membranes. The filtrates were collected for solubility determination by high performance liquid chromatography. pH 3, pH 4, pH5 and pH 6 represent acetate buffer solutions, and pH 7, pH 7.4, pH 8 and pH 9 represent phosphate buffer solutions.

[2] = Hydrochloride dissociation study (XRPD of residues); conditions: aqueous media of pH 6, pH 7, pH 7.4, pH 8, pH 9; shaken at 37° C. for 4 h
Protocol: The mixtures were shaken at 37° C. for 4 h and centrifuged.

[3] = Crystal form stability of solid salt forms (XRPD); conditions: 60° C., Day 10, listed as crystal form A of cariprazine mono-1-hydroxy-2-naphthoate dihydrate
Protocol: (4) The XRPD measurements were conducted on a Bruker model D8 Advance X-ray powder diffractometer using a round zero background single crystal silicon sample stage. CuKα rays were used as a light source in the test, and the scanning parameters are as follows: voltage: 40 kv; current: 40 mA; scanning range: 3°-45°; scanning step size: 0.02°; scanning mode: continuous scanning.

[4] = listed as Crystal form A of cariprazine mono-1-hydroxy-2-naphthoate dihydrate (Example 1), dihydrate
[5] = listed as Crystal form A of cariprazine bis-1-hydroxy-2-naphthoate hydrate (Example 5), hydrate
[6] = listed as Amorphous cariprazine embonate (Example 7)

Compound: CN(C)C(=O)N[C@H]1CC[C@H](CCN2CCN(c3cccc(Cl)c3Cl)CC2)CC1 [cariprazine hydrochloride, reference compound]
Solubility pH 3 [1]: 12302.45 μg/mL | Solubility pH 5 [1]: 1081.35 μg/mL | solubility at 24 h ([1]; pH 7, aqueous buffer, read-out: Solubility pH 7): 9.41 µg/mL | solubility at 24 h ([1]; pH 7.4, aqueous buffer, read-out: Solubility pH 7.4): 2.82 µg/mL | solubility at 24 h ([1]; pH 8, aqueous buffer, read-out: Solubility pH 8): 0.91 µg/mL | solubility at 24 h ([1]; pH 9, aqueous buffer, read-out: Solubility pH 9): 0.35 µg/mL | Solubility Water [1]: 10935.14 µg/mL | Dissociation in aqueous media (XRPD of residue) [2]: dissociated into cariprazine free base

Compound: CN(C)C(=O)NC1CCC(CCN2CCN(c3cccc(Cl)c3Cl)CC2)CC1 (centres unmarked) [cariprazine mono-1-hydroxy-2-naphthoate dihydrate]
Crystal form results, High temperature [3]: change into the crystal form C of cariprazine mono-1-hydroxy-2-naphthoate | Solubility pH 3 [1, 4]: 166.74 μg/mL | Solubility pH 4 [1, 4]: 72.47 μg/mL | Solubility pH 5 [1, 4]: 72.69 μg/mL | Solubility pH 6 [1, 4]: 41.95 μg/mL | Solubility pH 7 [1, 4]: 5.02 μg/mL | Solubility pH 7.4 [1, 4]: 1.51 μg/mL | Solubility pH 8 [1, 4]: 0.62 μg/mL | Solubility pH 9 [1, 4]: 0.45 μg/mL | Solubility Water [1, 4]: 60.01 µg/mL

Compound: CN(C)C(=O)NC1CCC(CCN2CCN(c3cccc(Cl)c3Cl)CC2)CC1 (centres unmarked) [cariprazine bis-1-hydroxy-2-naphthoate hydrate]
Solubility pH 3 [1, 5]: 36.75 μg/mL | Solubility pH 4 [1, 5]: 65.87 μg/mL | Solubility pH 5 [1, 5]: 20.69 μg/mL | Solubility pH 6 [1, 5]: 15.24 μg/mL | Solubility pH 7 [1, 5]: 6.13 μg/mL | Solubility pH 7.4 [1, 5]: 3.00 μg/mL | Solubility pH 8 [1, 5]: 1.14 μg/mL | Solubility pH 9 [1, 5]: 0.94 μg/mL | Solubility Water [1, 5]: 55.20 µg/mL

Compound: CN(C)C(=O)NC1CCC(CCN2CCN(c3cccc(Cl)c3Cl)CC2)CC1 (centres unmarked) [Cariprazine (commercially available), Cariprazine, reference compound]
Solubility pH 8 [1]: 0.4 μg/mL | Solubility Water [1]: 179.94 µg/mL (≈ 421 µM)

Now from value to molecule:

Solubility pH 3 [1]: 102.65 μg/mL | Solubility pH 4 [1]: 82.64 μg/mL | Solubility pH 5 [1]: 81.47 μg/mL | Solubility pH 6 [1]: 36.38 μg/mL | Solubility pH 7 [1]: 4.79 μg/mL | Solubility pH 7.4 [1]: 1.53 μg/mL | Solubility pH 8 [1]: 0.51 μg/mL | Solubility pH 9 [1]: 0.31 μg/mL | Solubility Water [1]: 65.28 µg/mL (≈ 153 µM)
Compound: CN(C)C(=O)NC1CCC(CCN2CCN(c3cccc(Cl)c3Cl)CC2)CC1 (centres unmarked) [Crystal form C of cariprazine mono-1-hydroxy-2-naphthoate (E]

Solubility pH 3 [1, 6]: 151.2 μg/mL | Solubility pH 4 [1, 6]: 19.1 μg/mL | Solubility pH 5 [1, 6]: 17.7 μg/mL | Solubility pH 6 [1, 6]: 19.0 μg/mL | Solubility pH 7 [1, 6]: 18.8 μg/mL | Solubility pH 7.4 [1, 6]: 9.9 μg/mL | Solubility pH 8 [1, 6]: 4.6 μg/mL | Solubility pH 9 [1, 6]: 4.2 μg/mL | Solubility Water [1, 6]: 10.4 µg/mL (≈ 24.3 µM)
Compound: CN(C)C(=O)NC1CCC(CCN2CCN(c3cccc(Cl)c3Cl)CC2)CC1 (centres unmarked) [Amorphous cariprazine embonate, cariprazine embonate]
